# Measurements as given in ChEMBL document CHEMBL6087458, “The Discovery of a Novel AXL/Triple Angiokinase Inhibitor Based on 6-Chloro-Substituted Indolinone and Side Chain Methyl Substitution Inhibiting Pancreatic Cancer Growth and Metastasis” (J Med Chem, 2025).
# Activity calls are given as the source filed them. The rule behind the calls is not given here.
# Key:
# [1] = target: Vascular endothelial growth factor receptor 2 (Homo sapiens, UniProt P35968); assay: Inhibition of KDR (unknown origin) by envision reader analysis
# Vascular endothelial growth factor receptor 2, sequence (P35968 whole entry): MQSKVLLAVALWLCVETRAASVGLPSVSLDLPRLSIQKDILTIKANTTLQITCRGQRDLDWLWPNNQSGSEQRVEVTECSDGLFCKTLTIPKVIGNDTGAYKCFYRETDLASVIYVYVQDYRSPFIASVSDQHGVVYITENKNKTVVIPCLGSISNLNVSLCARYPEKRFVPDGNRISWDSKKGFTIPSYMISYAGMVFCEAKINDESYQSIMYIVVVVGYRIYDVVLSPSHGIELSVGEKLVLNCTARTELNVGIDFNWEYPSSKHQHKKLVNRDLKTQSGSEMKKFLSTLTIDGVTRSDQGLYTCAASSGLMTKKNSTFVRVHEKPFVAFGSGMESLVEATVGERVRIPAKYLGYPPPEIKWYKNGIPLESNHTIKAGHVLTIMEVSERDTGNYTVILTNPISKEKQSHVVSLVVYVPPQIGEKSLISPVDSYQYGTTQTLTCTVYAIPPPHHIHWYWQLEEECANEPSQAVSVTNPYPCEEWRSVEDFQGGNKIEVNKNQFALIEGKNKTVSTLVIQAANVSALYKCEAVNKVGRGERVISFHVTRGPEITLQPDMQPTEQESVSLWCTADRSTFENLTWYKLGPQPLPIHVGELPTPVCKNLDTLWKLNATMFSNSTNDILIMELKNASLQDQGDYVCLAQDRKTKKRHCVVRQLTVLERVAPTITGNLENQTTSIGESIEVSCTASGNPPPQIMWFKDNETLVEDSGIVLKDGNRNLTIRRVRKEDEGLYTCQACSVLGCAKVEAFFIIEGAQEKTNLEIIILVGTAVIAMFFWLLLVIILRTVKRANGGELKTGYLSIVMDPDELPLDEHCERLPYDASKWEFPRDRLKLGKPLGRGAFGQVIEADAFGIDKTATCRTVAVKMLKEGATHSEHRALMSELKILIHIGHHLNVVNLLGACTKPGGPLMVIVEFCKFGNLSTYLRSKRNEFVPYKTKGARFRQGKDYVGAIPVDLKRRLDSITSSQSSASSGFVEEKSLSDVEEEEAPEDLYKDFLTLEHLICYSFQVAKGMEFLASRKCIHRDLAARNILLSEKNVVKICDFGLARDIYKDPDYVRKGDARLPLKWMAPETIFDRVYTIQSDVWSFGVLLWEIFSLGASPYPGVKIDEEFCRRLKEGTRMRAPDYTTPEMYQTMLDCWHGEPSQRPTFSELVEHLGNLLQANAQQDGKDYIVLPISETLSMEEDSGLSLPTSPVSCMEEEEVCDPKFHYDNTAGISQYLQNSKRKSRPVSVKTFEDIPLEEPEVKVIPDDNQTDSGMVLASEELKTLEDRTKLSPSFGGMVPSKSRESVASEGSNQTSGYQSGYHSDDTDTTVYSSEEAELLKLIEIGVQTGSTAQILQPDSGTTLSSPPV
# [2] = target: Serine/threonine-protein kinase SIK2 (Homo sapiens) (UniProt Q9H0K1); assay: Inhibition of QIK (unknown origin) by envision reader analysis
# Serine/threonine-protein kinase SIK2 (Homo sapiens), sequence (Q9H0K1 whole entry, looked up): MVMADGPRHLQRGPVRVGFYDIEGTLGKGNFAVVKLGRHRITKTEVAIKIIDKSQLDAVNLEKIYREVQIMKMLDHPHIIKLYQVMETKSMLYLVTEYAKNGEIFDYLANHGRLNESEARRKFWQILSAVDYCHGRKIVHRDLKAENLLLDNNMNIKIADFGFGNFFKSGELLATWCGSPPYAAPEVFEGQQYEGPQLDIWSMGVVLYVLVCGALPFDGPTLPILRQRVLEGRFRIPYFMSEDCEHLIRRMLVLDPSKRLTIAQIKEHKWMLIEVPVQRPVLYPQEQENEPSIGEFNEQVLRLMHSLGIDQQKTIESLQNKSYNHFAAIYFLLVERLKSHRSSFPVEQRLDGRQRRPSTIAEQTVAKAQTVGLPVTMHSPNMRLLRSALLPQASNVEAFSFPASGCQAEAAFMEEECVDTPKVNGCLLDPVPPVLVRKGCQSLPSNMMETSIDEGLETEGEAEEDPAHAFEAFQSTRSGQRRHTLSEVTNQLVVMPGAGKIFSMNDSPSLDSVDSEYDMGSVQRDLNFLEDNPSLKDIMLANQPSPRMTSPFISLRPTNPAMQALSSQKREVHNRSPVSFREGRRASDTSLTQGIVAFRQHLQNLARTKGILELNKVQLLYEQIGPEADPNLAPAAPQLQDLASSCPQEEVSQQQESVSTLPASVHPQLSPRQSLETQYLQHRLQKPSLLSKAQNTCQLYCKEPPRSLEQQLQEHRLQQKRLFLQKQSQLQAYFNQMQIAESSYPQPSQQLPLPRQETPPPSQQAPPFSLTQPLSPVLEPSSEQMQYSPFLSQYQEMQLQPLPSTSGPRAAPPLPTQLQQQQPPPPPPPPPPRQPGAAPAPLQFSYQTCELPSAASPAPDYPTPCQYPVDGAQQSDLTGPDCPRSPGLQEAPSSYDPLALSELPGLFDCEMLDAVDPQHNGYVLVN
# [3] = species: Homo sapiens; assay: Inhibition of SRC (unknown origin) by envision reader analysis
# [4] = species: Homo sapiens; assay: Inhibition of PDGFR (unknown origin) by envision reader analysis
# [5] = Antiproliferative activity against human HUVEC cells cultured as 3D tumor spheroids assessed as cell viability incubated for 72 hrs by CCK-8 assay; assay type: toxicity, cell-based
# [6] = Antiproliferative activity against mouse NIH/3T3 cells cultured as 3D tumor spheroids assessed as cell viability incubated for 72 hrs by CCK-8 assay; assay type: toxicity, cell-based, NIH3T3
# [7] = test system: HUVEC; assay: Inhibition of VEGFR phosphorylation in HUVEC cells at 0.5 to 2 uM incubated for 24 hrs by Western blot assay; assay type: cell-based; details: Homo sapiens, dose 0.5-2 µM
# [8] = test system: BXPC-3; assay: Inhibition of colony formation in human BXPC-3 cells at 0.5 uM incubated for 72 hrs; assay type: functional, cell-based
# [9] = test system: BXPC-3; assay: Down regulation of Ki67 expression in human BXPC-3 cells by immunofluorescence assay; assay type: functional, cell-based
# [10] = test system: MDA-MB-231; assay: Effect on STAT3 level in human MDA-MB-231 cells incubated for 24 to 72 hrs by Western blot analysis; assay type: functional, cell-based; details: time 24-72 hrs
# [11] = test system: BXPC-3; assay: Effect on STAT3 level in human BXPC-3 cells incubated for 24 to 72 hrs by Western blot analysis; assay type: functional, cell-based; details: time 24-72 hrs
# [12] = target: Signal transducer and activator of transcription 3 (Homo sapiens) (UniProt P40763); assay: Inhibition of STAT3 phosphorylation in human MDA-MB-231 cells incubated for 24 to 72 hrs by Western blot analysis; assay type: cell-based; details: dose <= 5.0 µM, time 24-72 hrs
# Signal transducer and activator of transcription 3 (Homo sapiens), sequence (P40763 whole entry): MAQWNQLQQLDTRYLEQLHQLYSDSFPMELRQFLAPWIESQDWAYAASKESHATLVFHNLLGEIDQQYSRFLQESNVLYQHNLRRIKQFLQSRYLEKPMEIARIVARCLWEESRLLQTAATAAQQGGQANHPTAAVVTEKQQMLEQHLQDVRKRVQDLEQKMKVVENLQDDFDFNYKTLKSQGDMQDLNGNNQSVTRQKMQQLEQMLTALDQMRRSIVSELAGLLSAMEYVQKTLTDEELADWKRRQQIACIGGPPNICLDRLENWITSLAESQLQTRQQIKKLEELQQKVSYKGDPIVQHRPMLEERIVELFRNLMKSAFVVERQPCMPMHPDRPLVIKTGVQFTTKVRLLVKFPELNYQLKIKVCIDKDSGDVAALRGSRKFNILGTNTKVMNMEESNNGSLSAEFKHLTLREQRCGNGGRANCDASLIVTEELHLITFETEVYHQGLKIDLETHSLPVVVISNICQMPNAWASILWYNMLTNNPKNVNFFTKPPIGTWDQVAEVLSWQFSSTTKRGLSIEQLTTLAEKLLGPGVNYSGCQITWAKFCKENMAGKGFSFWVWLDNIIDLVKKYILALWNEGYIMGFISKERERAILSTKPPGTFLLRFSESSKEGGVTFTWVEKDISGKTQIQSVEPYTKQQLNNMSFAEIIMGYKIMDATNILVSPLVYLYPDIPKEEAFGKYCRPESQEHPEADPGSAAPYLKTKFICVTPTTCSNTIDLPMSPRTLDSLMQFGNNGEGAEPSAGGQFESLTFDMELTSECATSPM
# [13] = test system: BXPC-3; assay: Antiproliferative activity against human BXPC-3 cells cultured as 3D tumor spheroids assessed as cell viability incubated for 7 days by CCK-8 assay; details: BXPC-3, 168 h
# [14] = test system: BXPC-3; assay: Induction of apoptosis in human BXPC-3 cells by annexin V-FITC/propidium iodide staining-based flow cytometry analysis; assay type: functional, cell-based
# [15] = test system: MDA-MB-231; assay: Induction of apoptosis in human MDA-MB-231 cells assessed as increase in BAX expression at 0.1 to 1 uM incubated for 24 hrs by Western blot analysis; assay type: functional, cell-based; details: dose 0.1-1 µM
# [16] = test system: BXPC-3; assay: Induction of apoptosis in human BXPC-3 cells assessed as decrease in Bcl-2 expression at 0.1 to 1 uM incubated for 24 hrs by Western blot analysis; assay type: functional, cell-based; details: dose 0.1-1 µM
# [17] = test system: BXPC-3; assay: Inhibition of cell migration in human BXPC-3 cells assessed as decrease in cell migration incubated for 24 hrs by wound healing assay; assay type: functional, cell-based
# [18] = test system: BXPC-3; assay: Effect on E-cadherin expression in TGF-beta induced human BXPC-3 cells at 0.1 to 0.5 uM incubated for 24 hrs by immunofluorescence assay; assay type: functional, cell-based; details: dose 0.1-0.5 µM
# [19] = test system: BXPC-3; assay: Effect on N-cadherin expression in TGF-beta induced human BXPC-3 cells at 0.1 to 0.5 uM incubated for 24 hrs by immunofluorescence assay; assay type: functional, cell-based; details: dose 0.1-0.5 µM
# [20] = test system: MDA-MB-231; assay: Effect on E-cadherin expression in TGF-beta induced human MDA-MB-231 cells at 0.1 to 0.5 uM incubated for 24 hrs by immunofluorescence assay; assay type: functional, cell-based; details: dose 0.1-0.5 µM
# [21] = test system: MDA-MB-231; assay: Effect on N-cadherin expression in TGF-beta induced human MDA-MB-231 cells at 0.1 to 0.5 uM incubated for 24 hrs by immunofluorescence assay; assay type: functional, cell-based; details: dose 0.1-0.5 µM
# [22] = test system: BXPC-3; assay: Antitumor activity against human BXPC-3 cells xenografted in mouse assessed as tumor growth inhibition at 50 mg/kg, po administered for 14 days; assay type: functional; details: BXPC-3, 336 h, time 14 day, read-out: TGI
# [23] = Toxicity in mouse implanted with human BXPC-3 cells at 25 to 50 mg/kg, po measured on day 11; assay type: organism-based; details: in vivo, 264 h, dose 25-50 mg/kg, time 11 day
# [24] = Toxicity in mouse implanted with human BXPC-3 cells assessed as liver damage at 50 mg/kg, po by H and E staining based analysis; assay type: organism-based; details: in vivo
# [25] = Toxicity in mouse implanted with human BXPC-3 cells assessed as spleen damage at 50 mg/kg, po by H and E staining based analysis; assay type: organism-based; details: in vivo
# [26] = Cytotoxicity against human HaCaT cells assessed as inhibition of cell growth; assay type: toxicity, cell-based
# [27] = Cytotoxicity against human HEK293 cells assessed as inhibition of cell growth; assay type: toxicity, cell-based
# [28] = AUC (0 to last) in Sprague-Dawley rat at 5 mg/kg, iv; assay type: ADME, organism-based; details: Sprague-Dawley, in vivo
# [29] = AUC (0 to last) in Sprague-Dawley rat at 50 mg/kg, po; assay type: ADME, organism-based; details: Sprague-Dawley, in vivo
# [30] = Half life in Sprague-Dawley rat at 5 mg/kg, iv; assay type: ADME, organism-based; details: in vivo
# [31] = Volume of distribution at steady state in Sprague-Dawley rat at 5 mg/kg, iv; assay type: ADME, organism-based; details: in vivo, read-out: Vdss
# [32] = test system: BXPC-3; assay: cells; details: Homo sapiens, BXPC-3, 72 h
# Description: Antiproliferative activity against human BXPC-3 cells assessed as cell viability incubated for 72 hrs by MTT assay
# [33] = test system: MDA-MB-231; assay: cells; details: Homo sapiens, MDA-MB-231, 72 h
# Description: Antiproliferative activity against human MDA-MB-231 cells assessed as cell viability incubated for 72 hrs by MTT assay
# [34] = test system: SW480; assay: cells; details: Homo sapiens, SW480, 72 h
# Description: Antiproliferative activity against human SW480 cells assessed as cell viability incubated for 72 hrs by MTT assay
# [35] = test system: PC-9; assay: cells; details: Homo sapiens, PC-9, 72 h
# Description: Antiproliferative activity against human PC-9 cells assessed as cell viability incubated for 72 hrs by MTT assay
# [36] = test system: A549/TR; assay: cells; details: Homo sapiens, 72 h
# Description: Antiproliferative activity against human A549/Taxol cells assessed as cell viability incubated for 72 hrs by MTT assay
# [37] = cells; details: Homo sapiens, CDDP-resistant A549 cell, 72 h
# Description: Antiproliferative activity against human CDDP-resistant A549 cell assessed as cell viability incubated for 72 hrs by MTT assay
# [38] = test system: Osimertinib-resistant NCI-H1975 cell; assay: cells; details: Homo sapiens, 72 h
smiles,measurement,setting,value
CCN1CCN(C(C)C(=O)N(C)c2ccc(N/C(=C3\C(=O)Nc4cc(Cl)ccc43)c3ccccc3)cc2)CC1 (racemic),IC50,[1],0.00152 µM
same,inhibition,[2],Active
same,inhibition,[3],Active
same,inhibition,[4],Active
same,IC50 at 72 h,[5],1.54 µM
same,IC50 at 72 h,[6],2.31 µM
same,inhibition,[7],Active
same,inhibition,[8],Active
same,Activity,[9],Active
same,Activity,[10],inactive
same,Activity,[11],Active
same,inhibition,[12],Dose-dependent-effect
same,IC50,[13],1.62 µM
same,Activity,[14],Active
same,Activity,[15],Active
same,Activity,[16],Active
same,inhibition,[17],Active
same,Activity,[18],Active
same,Activity,[19],Active
same,Activity,[20],Active
same,Activity,[21],Active
same,inhibition in vivo at 50 mg/kg,[22],83%
same,Activity,[23],Non-toxic
same,Activity,[24],Non-toxic
same,Activity,[25],Non-toxic
same,IC50,[26],> 10 µM
same,IC50,[27],> 10 µM
same,AUC(0-t),[28],1.77 µg·h/mL
same,AUC(0-t),[29],1.15 µg·h/mL
same,half-life,[30],4.36 h
same,Vd,[31],12.8 L/kg
same,IC50,[32],1.01 µM
same,IC50,[33],1.16 µM
same,IC50,[34],5.91 µM
same,IC50,[35],5.91 µM
same,IC50,[36],4.77 µM
same,IC50,[37],5.4 µM
same,IC50,[38],1.12 µM
